Each block holds one molecule with its values, some of them ahead of it.
How the values were obtained:
macrophages = conditions: cited from earlier work
[1] = tested on: human primary aortic endothelial cells; assay: ox-LDL uptake by human primary aortic endothelial cells (flow cytometry); assay type: cell-based; conditions: Endothelial cell, 0, 5, 50, 100, 250, 500 nM
Description: FIG. 7A depicts flow cytometry measurements using human primary aortic endothelial cells in the presence of 0, 5, 50 100, 250 and […] of Formula XVI. FIG. 7B depicts the percentage of internalized ox-LDL. The x-axis represents Formula XVI concentration (nM) and the y-axis represents ox-LDL uptake by ECs.
Ox-LDL uptake by human primary aortic endothelial cells was measured after exposure to 0, 5, 50, 100, 250 and 500 nM of the compound of Formula XVI (compound 13 in Table 3) using flow cytometry.

LOX-1 expression = conditions: cited from earlier work
[2] = target: CHO cells expressing LOX-1 (Homo sapiens, UniProt P78380); conditions: only at high concentrations; cited from earlier work

Molecule: CCCCCCCCCCCCCCCCCC(=O)Nc1ccc(S(=O)(=O)O)c(NC(=O)CCCCCCCCCCCCCCCCC)c1 [2,4-bis(octadecanoylamino) benzenesulfonic acid]
LDL binding to macrophages (macrophages): prevented LDL from binding to macrophages

IC50 [1]: 26.7 nM
Molecule: OC(COc1ccccc1)Cn1ccnc1I (stereo not shown) [Formula XVI]

Molecule: CC(=O)Oc1ccccc1C(=O)O [aspirin]
ox-LDL mediated LOX-1 expression (LOX-1 expression): reduce ox-LDL mediated LOX-1 expression

Molecule: procyanidins
ox-LDL uptake in CHO cells expressing LOX-1 [2]: inhibited ox-LDL uptake

Source: patent US11465972B2, “Inhibitors of oxidized low-density lipoprotein receptor 1 and methods of use thereof” (United States Government as represented by the Department …, priority 2015, dated 2022)
